Laboratory results reported in patent US8835472B2, “Compounds, pharmaceutical compositions and uses thereof” (Boehringer Ingelheim International GmbH, priority 2010, dated 2014).
pIC50: −log10 of the molar value.

Target: human ACC2 (Homo sapiens (Human), UniProt O00763)
Experiment: ACC2 assay, spectrophotometric 384 well assay (NADH-linked, coupled lactate dehydrogenase/pyruvate kinase reaction)
Assay type: biochemical
Settings: hACC2 construct lacking the 128 N-terminal amino acids; 25° C., 340 nm over 15 minutes
In short: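 N-terminally truncated human ACC2 (lacking 128 residues) expressed in insect cells; coupled PK/LDH read-out of ADP as NADH loss at 340 nm, 15 min, 25 °C. Tris pH 7.5 with citrate and KHCO3; 200 μM acetyl-CoA, 500 μM ATP, 1% DMSO.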

Sequence of human ACC2 (O00763 129-2458): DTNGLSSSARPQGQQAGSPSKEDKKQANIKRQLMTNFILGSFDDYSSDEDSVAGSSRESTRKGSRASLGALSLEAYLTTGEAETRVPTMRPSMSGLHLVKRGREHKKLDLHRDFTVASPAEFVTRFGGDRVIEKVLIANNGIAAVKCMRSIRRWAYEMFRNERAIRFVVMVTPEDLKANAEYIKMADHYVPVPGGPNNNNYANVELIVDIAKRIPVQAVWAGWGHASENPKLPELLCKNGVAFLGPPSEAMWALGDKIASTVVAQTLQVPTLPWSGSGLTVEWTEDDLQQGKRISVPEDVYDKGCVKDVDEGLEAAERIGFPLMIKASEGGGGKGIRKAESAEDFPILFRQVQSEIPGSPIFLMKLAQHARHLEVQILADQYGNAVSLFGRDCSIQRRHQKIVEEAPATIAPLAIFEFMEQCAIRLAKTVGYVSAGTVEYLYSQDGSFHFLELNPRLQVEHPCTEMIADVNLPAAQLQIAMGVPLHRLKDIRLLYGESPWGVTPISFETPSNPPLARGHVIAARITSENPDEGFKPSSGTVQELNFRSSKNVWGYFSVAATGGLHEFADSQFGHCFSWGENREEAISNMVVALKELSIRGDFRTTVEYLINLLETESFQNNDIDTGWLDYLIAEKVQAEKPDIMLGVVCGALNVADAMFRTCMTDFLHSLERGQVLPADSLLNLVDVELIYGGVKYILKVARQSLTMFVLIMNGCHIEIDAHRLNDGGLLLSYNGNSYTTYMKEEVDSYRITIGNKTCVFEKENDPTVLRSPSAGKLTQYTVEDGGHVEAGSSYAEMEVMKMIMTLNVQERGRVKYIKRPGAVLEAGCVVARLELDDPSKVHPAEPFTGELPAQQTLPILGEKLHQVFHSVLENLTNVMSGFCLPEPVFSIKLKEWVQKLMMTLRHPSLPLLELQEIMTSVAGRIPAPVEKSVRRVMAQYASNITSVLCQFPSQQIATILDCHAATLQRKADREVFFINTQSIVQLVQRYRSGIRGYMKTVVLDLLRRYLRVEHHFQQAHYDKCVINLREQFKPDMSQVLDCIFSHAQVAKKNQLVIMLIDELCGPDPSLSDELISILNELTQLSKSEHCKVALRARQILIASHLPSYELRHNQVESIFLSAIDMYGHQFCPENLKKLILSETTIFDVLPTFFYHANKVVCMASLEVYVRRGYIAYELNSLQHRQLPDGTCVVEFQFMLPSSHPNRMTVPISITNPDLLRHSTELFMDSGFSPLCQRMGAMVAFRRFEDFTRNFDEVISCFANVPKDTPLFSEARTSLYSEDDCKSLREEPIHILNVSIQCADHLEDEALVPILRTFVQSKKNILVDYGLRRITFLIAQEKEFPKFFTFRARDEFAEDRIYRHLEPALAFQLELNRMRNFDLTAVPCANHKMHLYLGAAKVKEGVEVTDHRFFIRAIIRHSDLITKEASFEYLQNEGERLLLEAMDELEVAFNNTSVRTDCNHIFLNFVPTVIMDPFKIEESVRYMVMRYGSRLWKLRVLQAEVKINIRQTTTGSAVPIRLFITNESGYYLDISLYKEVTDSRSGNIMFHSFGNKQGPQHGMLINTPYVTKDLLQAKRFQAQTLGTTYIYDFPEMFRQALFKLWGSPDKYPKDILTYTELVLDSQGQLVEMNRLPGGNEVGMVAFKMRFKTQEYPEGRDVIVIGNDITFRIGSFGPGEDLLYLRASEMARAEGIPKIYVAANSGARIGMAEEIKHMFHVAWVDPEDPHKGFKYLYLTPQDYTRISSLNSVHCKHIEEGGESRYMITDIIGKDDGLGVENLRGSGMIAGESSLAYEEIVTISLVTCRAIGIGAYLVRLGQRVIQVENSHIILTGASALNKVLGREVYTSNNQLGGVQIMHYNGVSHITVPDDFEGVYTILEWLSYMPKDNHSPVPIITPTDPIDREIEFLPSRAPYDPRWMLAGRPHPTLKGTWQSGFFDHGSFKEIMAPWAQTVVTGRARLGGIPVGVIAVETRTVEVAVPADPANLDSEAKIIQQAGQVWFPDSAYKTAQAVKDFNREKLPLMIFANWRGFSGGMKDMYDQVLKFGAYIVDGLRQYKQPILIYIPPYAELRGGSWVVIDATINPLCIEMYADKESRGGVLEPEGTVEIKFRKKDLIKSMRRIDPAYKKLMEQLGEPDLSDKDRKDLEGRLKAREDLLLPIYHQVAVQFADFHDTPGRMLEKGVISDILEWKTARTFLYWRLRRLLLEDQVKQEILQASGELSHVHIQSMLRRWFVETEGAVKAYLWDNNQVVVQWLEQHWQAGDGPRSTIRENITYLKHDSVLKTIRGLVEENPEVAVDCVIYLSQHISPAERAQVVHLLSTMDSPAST

Row | SMILES | pIC50
1 | CCOc1ccc(C#Cc2ccc(C(C)NC(=O)C3CC3)cc2)cc1 (stereo not shown) [Example 4.41] | 5.70
2 | CCNc1ncc(C#Cc2ccc(CC(C)NC(=O)OC)cc2)cn1 (stereo not shown) [Example 13.41] | 5.62
3 | CCOc1ccc(C#Cc2ccc(CC(C)NC(=O)c3ccon3)cc2)cc1 (stereo not shown) [Example 4.65] | 5.96
4 | CC(=O)NC(C)Cc1ccc(C#Cc2cccc(C(=O)N3CCCC3)c2)cc1 (stereo not shown) [Example 8.48] | 5.21
5 | COCc1ccc(C#Cc2ccc(CC(C)NC(C)=O)cc2)cc1 (stereo not shown) [Example 2.109] | 6.10
6 | CSc1ccc(C#Cc2ccc(CC(C)NC(C)=O)cc2)cc1 (stereo not shown) [Example 23.10] | 6.66
7 | CC(=O)N[C@@H](C)Cc1ccc(C#Cc2ccc(Oc3ccccc3)nc2)cc1 [Example 24.3] | 6.77
8 | COC(=O)NC(C)Cc1ccc(C#Cc2cnc(NC3CC3)nc2)cc1 (stereo not shown) [Example 13.36] | 5.80
9 | COc1ncc(C#Cc2ccc(CC(C)NC(C)=O)cc2)c(OC)n1 (stereo not shown) [Example 2.9] | 5.82
10 | CCCC(C)Nc1ncc(C#Cc2ccc(CC(C)NC(C)=O)cc2)cn1 (stereo not shown) [Example 13.15] | 6.80
